Source: patent publication US8455516B2, “HIV-1 fusion inhibitors and methods” (Touro University, priority 2010, dated 2013)
Like-named read-outs stand apart in the source and are kept apart here.

Legend:
HIV-1 IIIB = test: HIV-1 viral infectivity inhibition, IIIB; format: cell-based; conditions: Human immunodeficiency virus 1, IIIB
Protocol: (§1) The ability of the compounds to inhibit HIV-1 infectivity was assessed using standard assays as reported in the literature. See: 1) Desmezieres, E.; Gupta, N.; Vassell, R.; He, Y.; Peden, K.; Sirota, L.; Yang, Z.; Wingfield, P.; Weiss, C. D. J Virol 2005, 79, 4774, and 2) Lackman-Smith, C.; Osterling, C.; Luckenbaugh, K.; Mankowski, M.; Snyder, B.; Lewis, G.; Paull, J.; Profy, A.; Ptak, R. G.; Buckheit, R. W., Jr.; Watson, K. M.; Cummins, J. E.; Sanders-Beer, B. E. Antimicrob Agents Chemother 2008.

[1] = system: Pseudovirus HIV-1 BAL (CCR5-tropic strain); test: microbe, parasite or virus in culture; conditions: MAGI
in vitro = conditions: human
[2] = system: Pseudovirus HIV-1 BAL (CCR5-tropic strain)
[3] = cytotoxicity, luciferase expression-based test; conditions: human, TZM-bl cells
HIV-1 Ba-L = test: HIV-1 viral infectivity inhibition, Ba-L; format: cell-based; conditions: Human immunodeficiency virus 1, BAL
Protocol: as §1

MAGI cells = conditions: human
TZM-bl cells = test: cytotoxicity, luciferase expression-based test; conditions: toxicity to TZM-bl cells, 24 hour exposure
HIV-1 HXB2 = test: HIV-1 viral infectivity inhibition, HXB2; format: cell-based; conditions: Human immunodeficiency virus 1, HXB2
Protocol: as §1

[4] = biological target: T1, gp41 hydrophobic pocket (receptor Fe(env2.0)3) (Human immunodeficiency virus type 1 group M subtype B, UniProt P04578); test: competitive inhibition fluorescence binding assay for the gp41 hydrophobic pocket; design: species or system HIV-1; conditions: binding constant, hydrophobic pocket of gp41
T1 construct: utilizing a receptor Fe(env2.0)3 selective for the hydrophobic pocket
Protocol: Compounds were validated for binding activity with a biochemical assay, and for biological activity with a cell-cell fusion (CCF) assay.
Association between the C-peptide and receptor leads to fluorescence quenching, which is reversed in the presence of an inhibitor. […] The assay is quantitative and provides the binding constant (KI) of the inhibitor.
Toxicity of the compounds to TZM-bl cells was also tested to ensure that the luminescence decrease was not simply due to cell death (CC50, toxicity).

O=C(O)c1cccc(Cc2ccc3cc[nH]c3c2)c1 [Compound I-1, 3-((1H-indol-6-yl)methyl)benzoic acid]
IC50 (HIV-1 IIIB): 99.9 µM
IC50 ([1]; 2% Serum): 15.5 µM
IC90 ([1]; 2% Serum): 58 µM
IC50 ([1]; 5% Serum): 34.8 µM
IC90 ([1]; 5% Serum): 89.4 µM
IC50 ([1]; 10% Serum): 44.7 µM
IC90 ([1]; 10% Serum): > 100 µM
CC50 (in vitro): > 100 µM
TI (TC50/IC50) ([2]; 2% Serum): >6.45
TI (TC50/IC50) ([2]; 5% Serum): >2.87
TI (TC50/IC50) ([2]; 10% Serum): >2.24
CC50 at 24 h [3]: > 500 µM
IC50 (HIV-1 Ba-L): 44.7 µM
CC50 (MAGI cells): > 100 µM

COc1ccc(Cn2ccc3ccc(Cc4cccc(C(=O)O)c4)cc32)cc1 [Compound I-2, 3-((1-(4-methoxybenzyl)-1H-indol-6-yl)methyl)benzoic acid]
CC50 (TZM-bl cells): 100 µM

O=C(O)C(=O)c1c[nH]c2cc(Cc3cccc(C(=O)O)c3)ccc12 [Compound I-3, 3-((3-(carboxycarbonyl)-1H-indol-6-yl)methyl)benzoic acid]
CC50 at 24 h [3]: > 100 µM

O=C(O)c1cccc(Cc2ccc3ccn(Cc4cccc(C(=O)O)c4)c3c2)c1 [Compound I-4, 3-((1-(3-(carboxy)benzyl)-1H-indol-6-yl)methyl)benzoic acid]
CC50 at 24 h [3]: > 200 µM

O=C(O)c1cccc(Cc2ccc3ccn(Cn4ccc5ccc(Cc6cccc(C(=O)O)c6)cc54)c3c2)c1 [Compound I-5, 3,3′-(1,1′-methylenebis(1H-indole-6,1-diyl))bis(methylene)dibenzoic acid]
IC50 (HIV-1 IIIB): ≥ 100 µM
IC50 ([1]; 2% Serum): 14.6 µM
IC90 ([1]; 2% Serum): 71.2 µM
IC50 ([1]; 5% Serum): 49.6 µM
IC90 ([1]; 5% Serum): 93.6 µM
IC50 ([1]; 10% Serum): 92.1 µM
IC90 ([1]; 10% Serum): > 100 µM
CC50 (in vitro): > 100 µM
TI (TC50/IC50) ([2]; 2% Serum): >6.85
TI (TC50/IC50) ([2]; 5% Serum): >2.02
TI (TC50/IC50) ([2]; 10% Serum): >1.09
CC50 at 24 h [3]: > 100 µM
IC50 (HIV-1 HXB2): 17 µM
IC50 (HIV-1 Ba-L): 92.1 µM
CC50 (MAGI cells): > 100 µM

O=C(O)c1cccc(Cc2ccc3ccn(-c4cccc(C(=O)O)c4)c3c2)c1 [Compound I-6, 3-(6-(3-carboxybenzyl)-1H-indol-1-yl)benzoic acid]
Ki [4]: 45 ± 5 µM
CC50 (TZM-bl cells): > 400 µM

COc1cccc(-n2ccc3ccc(Cc4cccc(C(=O)O)c4)cc32)c1 [Compound I-7, 3-((1-(3-methoxyphenyl)-1H-indol-6-yl)methyl)benzoic acid]
IC50 (HIV-1 IIIB): 61.5 µM
IC50 ([1]; 2% Serum): 15.8 µM
IC90 ([1]; 2% Serum): > 100 µM
IC50 ([1]; 5% Serum): 34 µM
IC90 ([1]; 5% Serum): > 100 µM
IC50 ([1]; 10% Serum): 67.7 µM
IC90 ([1]; 10% Serum): > 100 µM
CC50 (in vitro): > 100 µM
TI (TC50/IC50) ([2]; 2% Serum): >6.33
TI (TC50/IC50) ([2]; 5% Serum): >2.94
TI (TC50/IC50) ([2]; 10% Serum): >1.48
CC50 at 24 h [3]: > 100 µM
IC50 (HIV-1 Ba-L): 67.7 µM
CC50 (MAGI cells): > 100 µM

O=Cc1c[nH]c2cc(Cc3cccc(C(=O)O)c3)ccc12 [Compound I-8, 3-((3-formyl-1H-indol-6-yl)methyl)benzoic acid]
CC50 at 24 h [3]: > 100 µM

O=C(O)c1cccc(Cc2ccc3[nH]ccc3c2)c1 [Compound I-9, 3-((1H-indol-5-yl)methyl)benzoic acid]
CC50 at 24 h [3]: > 400 µM

O=C(O)c1cccc(Cc2ccc3c(ccn3Cc3cccc(C(=O)O)c3)c2)c1 [Compound I-10, 3-((1-(3-carboxybenzyl)-1H-indol-5-yl)methyl)benzoic acid]
CC50 (TZM-bl cells): > 400 µM

COc1cccc(-c2ccc3ccn(Cc4cccc(C(=O)O)c4)c3c2)c1 [Compound I-11, 3-((6-(3-methoxyphenyl)-1H-indol-1-yl)methyl)benzoic acid]
IC50 (HIV-1 IIIB): 57.4 µM
IC50 ([1]; 2% Serum): 18 µM
IC90 ([1]; 2% Serum): > 100 µM
IC50 ([1]; 5% Serum): 36.6 µM
IC90 ([1]; 5% Serum): > 100 µM
IC50 ([1]; 10% Serum): 47.4 µM
IC90 ([1]; 10% Serum): > 100 µM
CC50 (in vitro): > 100 µM
TI (TC50/IC50) ([2]; 2% Serum): 3.75
TI (TC50/IC50) ([2]; 5% Serum): >2.73
TI (TC50/IC50) ([2]; 10% Serum): >2.11
CC50 at 24 h [3]: > 100 µM
IC50 (HIV-1 Ba-L): 47.4 µM

O=C(O)c1cccc(-c2ccc3cc[nH]c3c2)c1 [Compound I-12, 3-(1H-indol-6-yl)benzoic acid]
CC50 at 24 h [3]: > 100 µM

O=C(O)c1cccc(Cn2ccc3cc(-c4cccc(C(=O)O)c4)ccc32)c1 [Compound I-13, 3-(1-(3-carboxybenzyl)-1H-indol-5-yl)benzoic acid]
CC50 (TZM-bl cells): > 400 µM

O=C(O)c1cccc(Cn2ccc3ccc(-c4cccc(O)c4)cc32)c1 [Compound I-14, 3-((6-(3-hydroxyphenyl)-1H-indol-1-yl)methyl)benzoic acid]
CC50 at 24 h [3]: > 100 µM

O=[N+]([O-])c1cccc(Cc2ccc3cc[nH]c3c2)c1 [Compound I-15, 6-(3-nitrobenzyl)-1H-indole]
CC50 at 24 h [3]: ~63 µM

O=C(O)c1ccc([N+](=O)[O-])c(Cc2ccc3cc[nH]c3c2)c1 [Compound I-16, 3-((1H-indol-6-yl)methyl)-4-nitrobenzoic acid]
CC50 at 24 h [3]: > 100 µM

COc1ccc(C(=O)O)cc1Cc1ccc2cc[nH]c2c1 [Compound I-17, 3-((1H-indol-6-yl)methyl)-4-methoxybenzoic acid]
CC50 at 24 h [3]: > 100 µM

O=C(O)c1cc(O)cc(Cc2ccc3cc[nH]c3c2)c1 [Compound I-18, 3-((1H-indol-6-yl)methyl)-5-hydroxybenzoic acid]
CC50 at 24 h [3]: > 100 µM

O=C(O)c1ccc(O)c(Cc2ccc3cc[nH]c3c2)c1 [Compound I-19, 3-((1H-indol-6-yl)methyl)-4-hydroxybenzoic acid]
CC50 at 24 h [3]: > 100 µM

COc1cc(Cc2ccc3cc[nH]c3c2)cc(C(=O)O)c1 [Compound I-20, 3-((1H-indol-6-yl)methyl)-5-methoxybenzoic acid]
CC50 at 24 h [3]: > 100 µM

O=C(O)c1cccc(COc2cccc(-c3ccc4ccn(Cc5cccc(C(=O)O)c5)c4c3)c2)c1 [Compound I-21, 3-((3-(1-(3-carboxybenzyl)-1H-indol-6-yl)phenoxy)methyl)benzoic acid]
CC50 at 24 h [3]: > 100 µM

COc1ccc(COc2cccc(-c3ccc4ccn(Cc5cccc(C(=O)OCc6cccc(C(=O)O)c6)c5)c4c3)c2)cc1 [Compound I-22, 3-((3-((6-(3-(4-methoxybenzyloxy)phenyl)-1H-indol-1-yl)methyl)benzoyloxy)methyl)benzoic acid]
IC50 ([1]; 2% Serum): 13.8 µM
IC90 ([1]; 2% Serum): 31.1 µM
IC50 ([1]; 5% Serum): 18.7 µM
IC90 ([1]; 5% Serum): 76.4 µM
IC50 ([1]; 10% Serum): 22.6 µM
IC90 ([1]; 10% Serum): 91.7 µM
CC50 (in vitro): > 100 µM
TI (TC50/IC50) ([2]; 2% Serum): 4.27
TI (TC50/IC50) ([2]; 5% Serum): >5.35
TI (TC50/IC50) ([2]; 10% Serum): >4.42
CC50 at 24 h [3]: > 100 µM

O=C(O)c1cccc(Cn2ccc3ccc(-c4ccc5cc(Cl)ccc5n4)cc32)c1 [II-1, 3-((6-(6-chloroquinolin-2-yl)-1H-indol-1-yl)methyl)benzoic acid]
CC50 at 24 h [3]: 93 µM

O=C(O)c1cccc(Cn2ccc3cc(-c4ccc5cc(Cl)ccc5n4)ccc32)c1 [II-2, 3-((5-(6-chloroquinolin-2-yl)-1H-indol-1-yl)methyl)benzoic acid]
CC50 at 24 h [3]: 156 µM

COc1ccc(Cn2ccc3ccc(-c4ccc5ccn(Cc6cccc(C(=O)O)c6)c5c4)cc32)cc1 [II-3, 3-((1′-(4-methoxybenzyl)-1H,1′H-6,6′-biindol-1-yl)methyl)benzoic acid]
CC50 at 24 h [3]: 18.9 ± 2.9 µM
